Assay results: ChEMBL document CHEMBL1649268, “Comparative in vitro activity profile of oritavancin against recent gram-positive clinical isolates” (2009)
Values after ≈ are worked out from the molar mass of the structure shown.

Legend:
Format in all cases: functional
[1] = system: Streptococcus pneumoniae; assay: Antimicrobial activity against penicillin-resistant Streptococcus pneumoniae clinical isolates assessed as percent susceptible isolates by broth microdilution method in presence of clavulanate
[2] = system: Streptococcus pneumoniae; assay: Antimicrobial activity against penicillin-intermediate Streptococcus pneumoniae clinical isolates assessed as percent susceptible isolates by broth microdilution method in presence of clavulanate
[3] = system: Streptococcus pneumoniae; assay: Antimicrobial activity against penicillin-susceptible Streptococcus pneumoniae clinical isolates assessed as percent susceptible isolates by broth microdilution method in presence of clavulanate
[4] = system: Streptococcus pneumoniae; assay: Antimicrobial activity against penicillin-resistant Streptococcus pneumoniae clinical isolates assessed as resistant isolates by broth microdilution method in presence of clavulanate
[5] = system: Streptococcus pneumoniae; assay: Antimicrobial activity against Streptococcus pneumoniae clinical isolates assessed as resistant isolates by broth microdilution method in presence of clavulanate
[6] = system: Streptococcus pneumoniae; assay: Antimicrobial activity against Streptococcus pneumoniae clinical isolates assessed as percent susceptible isolates by broth microdilution method in presence of clavulanate
[7] = system: Streptococcus pneumoniae; assay: Antimicrobial activity against penicillin-intermediate Streptococcus pneumoniae clinical isolates assessed as resistant isolates by broth microdilution method in presence of clavulanate
[8] = system: Streptococcus pneumoniae; assay: Antimicrobial activity against penicillin-susceptible Streptococcus pneumoniae clinical isolates by broth microdilution method in presence of clavulanate
[9] = system: Streptococcus pneumoniae; assay: Antimicrobial activity against Streptococcus pneumoniae clinical isolates by broth microdilution method in presence of clavulanate
[10] = system: Streptococcus pneumoniae; assay: Antimicrobial activity against penicillin-susceptible Streptococcus pneumoniae clinical isolates assessed as resistant isolates by broth microdilution method in presence of clavulanate
[11] = system: Streptococcus pneumoniae; assay: Antimicrobial activity against penicillin-intermediate Streptococcus pneumoniae clinical isolates by broth microdilution method in presence of clavulanate
[12] = system: Streptococcus pneumoniae; assay: Antimicrobial activity against penicillin-resistant Streptococcus pneumoniae clinical isolates by broth microdilution method in presence of clavulanate
[13] = system: Streptococcus pneumoniae; assay: Antimicrobial activity against penicillin-intermediate Streptococcus pneumoniae clinical isolates by broth microdilution method
[14] = system: Streptococcus agalactiae; assay: Antimicrobial activity against Streptococcus agalactiae clinical isolates by broth microdilution method
[15] = system: Streptococcus pneumoniae; assay: Antimicrobial activity against penicillin-resistant Streptococcus pneumoniae clinical isolates by broth microdilution method
[16] = system: Staphylococcus aureus; assay: Antimicrobial activity against heterogeneous vancomycin-intermediate Staphylococcus aureus clinical isolates
[17] = system: Streptococcus agalactiae; assay: Antimicrobial activity against erythromycin-nonsusceptible Streptococcus agalactiae clinical isolates by broth microdilution method
[18] = system: Enterococcus faecalis; assay: Antimicrobial activity against Enterococcus faecalis expressing VanB gene clinical isolates by broth microdilution method
[19] = system: Streptococcus pyogenes; assay: Antimicrobial activity against erythromycin-susceptible Streptococcus pyogenes clinical isolates by broth microdilution method
[20] = system: Staphylococcus haemolyticus; assay: Antimicrobial activity against Staphylococcus haemolyticus clinical isolates by broth microdilution method
[21] = Antimicrobial activity against erythromycin-nonsusceptible Streptococcus Group G clinical isolates by broth microdilution method; details: Streptococcus sp. 'group G'
[22] = system: Enterococcus faecium; assay: Antimicrobial activity against Enterococcus faecium expressing VanA gene clinical isolates by broth microdilution method
[23] = system: Enterococcus faecalis; assay: Antimicrobial activity against Enterococcus faecalis expressing VanA gene clinical isolates by broth microdilution method
[24] = system: Streptococcus pneumoniae; assay: Antimicrobial activity against Streptococcus pneumoniae clinical isolates by broth microdilution method
[25] = Antimicrobial activity against Streptococcus Group G clinical isolates by broth microdilution method; details: Streptococcus sp. 'group G'
[26] = system: Staphylococcus epidermidis; assay: Antimicrobial activity against oxacillin-resistant Staphylococcus epidermidis clinical isolates by broth microdilution method
[27] = system: Streptococcus pneumoniae; assay: Antimicrobial activity against penicillin-susceptible Streptococcus pneumoniae clinical isolates by broth microdilution method
[28] = system: Enterococcus faecium; assay: Antimicrobial activity against vancomycin-susceptible Enterococcus faecium clinical isolates by broth microdilution method
[29] = system: Streptococcus pyogenes; assay: Antimicrobial activity against erythromycin-nonsusceptible Streptococcus pyogenes clinical isolates by broth microdilution method
[30] = Antimicrobial activity against erythromycin-nonsusceptible Streptococcus Group C clinical isolates by broth microdilution method; details: Streptococcus sp. 'group C'
[31] = system: Enterococcus faecalis; assay: Antimicrobial activity against vancomycin-nonsusceptible Enterococcus faecalis clinical isolates by broth microdilution method
[32] = system: Staphylococcus aureus; assay: Antimicrobial activity against oxacillin-resistant Staphylococcus aureus clinical isolates by broth microdilution method
[33] = system: Staphylococcus haemolyticus; assay: Antimicrobial activity against oxacillin-susceptible Staphylococcus haemolyticus clinical isolates by broth microdilution method
[34] = system: Staphylococcus epidermidis; assay: Antimicrobial activity against Staphylococcus epidermidis clinical isolates by broth microdilution method
[35] = system: Streptococcus; assay: Antimicrobial activity against erythromycin-susceptible Streptococcus Group F clinical isolates by broth microdilution method
[36] = system: Staphylococcus aureus; assay: Antimicrobial activity against oxacillin-susceptible Staphylococcus aureus clinical isolates by broth microdilution method
[37] = system: Staphylococcus aureus; assay: Antimicrobial activity against vancomycin- susceptible Staphylococcus aureus clinical isolates
[38] = Antimicrobial activity against erythromycin-susceptible Streptococcus Group G clinical isolates by broth microdilution method; details: Streptococcus sp. 'group G'
[39] = system: Streptococcus agalactiae; assay: Antimicrobial activity against erythromycin-susceptible Streptococcus agalactiae clinical isolates by broth microdilution method
[40] = system: Enterococcus faecalis; assay: Antimicrobial activity against Enterococcus faecalis clinical isolates by broth microdilution method
[41] = system: Staphylococcus epidermidis; assay: Antimicrobial activity against oxacillin-susceptible Staphylococcus epidermidis clinical isolates by broth microdilution method
[42] = system: Staphylococcus aureus; assay: Antimicrobial activity against vancomycin-resistant Staphylococcus aureus clinical isolates
[43] = system: Staphylococcus aureus; assay: Antimicrobial activity against Staphylococcus aureus clinical isolates by broth microdilution method
[44] = system: Enterococcus faecalis; assay: Antimicrobial activity against vancomycin-susceptible Enterococcus faecalis clinical isolates by broth microdilution method
[45] = system: Staphylococcus aureus; assay: Antimicrobial activity against vancomycin-intermediate Staphylococcus aureus clinical isolates
[46] = system: Streptococcus; assay: Antimicrobial activity against Streptococcus Group F clinical isolates by broth microdilution method
[47] = system: Enterococcus faecium; assay: Antimicrobial activity against vancomycin-nonsusceptible Enterococcus faecium clinical isolates by broth microdilution method
[48] = system: Staphylococcus haemolyticus; assay: Antimicrobial activity against oxacillin-resistant Staphylococcus haemolyticus clinical isolates by broth microdilution method
[49] = system: Enterococcus faecium; assay: Antimicrobial activity against Enterococcus faecium clinical isolates by broth microdilution method
[50] = system: Enterococcus faecium; assay: Antimicrobial activity against Enterococcus faecium expressing VanB gene clinical isolates by broth microdilution method
[51] = Antimicrobial activity against erythromycin-susceptible Streptococcus Group C clinical isolates by broth microdilution method; details: Streptococcus sp. 'group C'
[52] = system: Streptococcus; assay: Antimicrobial activity against erythromycin-nonsusceptible Streptococcus Group F clinical isolates by broth microdilution method
[53] = Antimicrobial activity against Streptococcus Group C clinical isolates by broth microdilution method; details: Streptococcus sp. 'group C'
[54] = system: Streptococcus pyogenes; assay: Antimicrobial activity against Streptococcus pyogenes clinical isolates by broth microdilution method

CC1(C)S[C@@H]2[C@H](NC(=O)[C@H](N)c3ccc(O)cc3)C(=O)N2[C@H]1C(=O)O [AMOXICILLIN]
Activity [1]: 53.4%
Activity [2]: 99.5%
Activity [3]: 100%
Activity [4]: 10.1%
Activity [5]: 1.5%
Activity [6]: 93.1%
Activity [7]: 0%
MIC90 [8]: 0.03 mg/L
MIC90 [9]: 2 mg/L
Activity [10]: 0%
MIC90 [11]: 1 mg/L
MIC90 [12]: 8 mg/L

CN[C@H](CC(C)C)C(=O)N[C@H]1C(=O)N[C@@H](CC(N)=O)C(=O)N[C@H]2C(=O)N[C@H]3C(=O)N[C@H](C(=O)N[C@H](C(=O)O)c4cc(O)cc(O)c4-c4cc3ccc4O)[C@H](O[C@H]3C[C@](C)(N)[C@@H](O)[C@H](C)O3)c3ccc(c(Cl)c3)Oc3cc2cc(c3O[C@@H]2O[C@H](CO)[C@@H](O)[C@H](O)[C@H]2O[C@H]2C[C@](C)(NCc3ccc(-c4ccc(Cl)cc4)cc3)[C@@H](O)[C@H](C)O2)Oc2ccc(cc2Cl)[C@H]1O [ORITAVANCIN]
MIC90 [13]: 0.008 mg/L (≈ 0.00446 µM)
MIC90 [14]: 0.25 mg/L (≈ 0.139 µM)
MIC90 [15]: 0.008 mg/L (≈ 0.00446 µM)
MIC90 [16]: 1 mg/L (≈ 0.558 µM)
MIC90 [17]: 0.25 mg/L (≈ 0.139 µM)
MIC90 [18]: 0.06 mg/L (≈ 0.0335 µM)
MIC90 [19]: 0.25 mg/L (≈ 0.139 µM)
MIC90 [20]: 0.12 mg/L (≈ 0.0669 µM)
MIC90 [21]: 0.25 mg/L (≈ 0.139 µM)
MIC90 [22]: 0.25 mg/L (≈ 0.139 µM)
MIC90 [23]: 1 mg/L (≈ 0.558 µM)
MIC90 [24]: 0.008 mg/L (≈ 0.00446 µM)
MIC90 [25]: 0.5 mg/L (≈ 0.279 µM)
MIC90 [26]: 0.25 mg/L (≈ 0.139 µM)
MIC90 [27]: 0.004 mg/L (≈ 0.00223 µM)
MIC90 [28]: 0.03 mg/L (≈ 0.0167 µM)
MIC90 [29]: 0.25 mg/L (≈ 0.139 µM)
MIC90 [30]: 0.25 mg/L (≈ 0.139 µM)
MIC90 [31]: 1 mg/L (≈ 0.558 µM)
MIC90 [32]: 0.12 mg/L (≈ 0.0669 µM)
MIC90 [33]: 0.06 mg/L (≈ 0.0335 µM)
MIC90 [34]: 0.25 mg/L (≈ 0.139 µM)
MIC90 [35]: 0.5 mg/L (≈ 0.279 µM)
MIC90 [36]: 0.12 mg/L (≈ 0.0669 µM)
MIC90 [37]: 0.12 mg/L (≈ 0.0669 µM)
MIC90 [38]: 0.5 mg/L (≈ 0.279 µM)
MIC90 [39]: 0.25 mg/L (≈ 0.139 µM)
MIC90 [40]: 0.06 mg/L (≈ 0.0335 µM)
MIC90 [41]: 0.25 mg/L (≈ 0.139 µM)
MIC90 [42]: 0.5 mg/L (≈ 0.279 µM)
MIC90 [43]: 0.12 mg/L (≈ 0.0669 µM)
MIC90 [44]: 0.06 mg/L (≈ 0.0335 µM)
MIC90 [45]: 1 mg/L (≈ 0.558 µM)
MIC90 [46]: 0.5 mg/L (≈ 0.279 µM)
MIC90 [47]: 0.25 mg/L (≈ 0.139 µM)
MIC90 [48]: 0.12 mg/L (≈ 0.0669 µM)
MIC90 [49]: 0.12 mg/L (≈ 0.0669 µM)
MIC90 [50]: 0.06 mg/L (≈ 0.0335 µM)
MIC [51]: ≤ 0.0005 mg/L
MIC90 [52]: 0.25 mg/L (≈ 0.139 µM)
MIC90 [53]: 0.5 mg/L (≈ 0.279 µM)
MIC90 [54]: 0.25 mg/L (≈ 0.139 µM)
